Measured values from US6251948A, “Tri-and tetra-substituted guanidines and their use as excitatory amino acid antagonists” (State of Oregon, acting by and through the Oregon State …, priority 1995, dated 2001).
Where a name gives a salt, the structure may show the parent alone.

Columns and labels:
[1] = test system: lesions caused by NMDA injection; experiment: In vivo neurotoxicity assay: NMDA-induced lesion (model of McDonald et al.); parameters: species or system rat; details: 0.1 to 100 umol/kg of body weight; intraperitoneal, 15 minutes following cerebral NMDA injection
Text: In the in vivo neurotoxicity studies, the experimental model of McDonald, J. W., et al., (In: Sigma and Phencyclidine-like Compounds as Molecular Probes in Biology, Ed. Domino, E. F., and Kamenka, J.-M., pp. 697-707 (1988), NPP Books, Ann Arbor, Mich.) can be employed. In this model, an NMDA injection into one cerebral hemisphere of a rat pup causes brain injury which resembles the lesion produced by hypoxia-ischemia. The ability of test compounds to limit the NMDA-induced lesion is a measure of their neuroprotective properties; and, since the compounds are administered intraperitoneally, the model also provides information about a compound's ability to cross the blood-brain barrier.
The experimental model of McDonald, J. W., et al., supra, was employed with the single alteration in protocol of an intraperitoneal injection of the test compound 15 minutes following, rather than preceding, the cerebral NMDA injection.

sigma brain receptor = details: Weber et al. 1986; U.S. Pat. No. 4,709,094; cited from earlier work
Korsakoff's disease = details: pretreatment; rat model; cited from earlier work

CCc1cccc(N(C)C(=N)Nc2cccc3ccccc23)c1 [Compound VII, N-(1-Naphthyl)-N'-(m-ethylphenyl)-N'-methylquanidine Hydrochloride]
protection against the lesions caused by NMDA injection [1]: protect against the lesions caused by NMDA injection

Cc1ccccc1NC(=N)Nc1ccccc1C [DTG, 1,3 di-o-tolyl-guanidine]
selectivity for the sigma receptor (sigma brain receptor): strong selectivity for the sigma receptor

C[C@]12N[C@H](Cc3ccccc31)c1ccccc12 [MK-801, (+)-5-methyl-10,11-dihydro-5H-dibenzo[a,d]cycloheptene-5,10-imine]
extent of cell loss, hemorrhages and amino acid changes (Korsakoff's disease): markedly attenuates the extent of cell loss, hemorrhages and amino acid changes
